Columns and labels:
Glucocorticoid receptor = target: T1, Glucocorticoid receptor (Homo sapiens, UniProt P04150); test: Transcriptional activation of Gal4(1-147) tagged glucocorticoid receptor in human HeLa cells by luciferase reporter gene assay relative to OxDex-AEEA; assay type: cell-based
T1 sequence (P04150 whole entry): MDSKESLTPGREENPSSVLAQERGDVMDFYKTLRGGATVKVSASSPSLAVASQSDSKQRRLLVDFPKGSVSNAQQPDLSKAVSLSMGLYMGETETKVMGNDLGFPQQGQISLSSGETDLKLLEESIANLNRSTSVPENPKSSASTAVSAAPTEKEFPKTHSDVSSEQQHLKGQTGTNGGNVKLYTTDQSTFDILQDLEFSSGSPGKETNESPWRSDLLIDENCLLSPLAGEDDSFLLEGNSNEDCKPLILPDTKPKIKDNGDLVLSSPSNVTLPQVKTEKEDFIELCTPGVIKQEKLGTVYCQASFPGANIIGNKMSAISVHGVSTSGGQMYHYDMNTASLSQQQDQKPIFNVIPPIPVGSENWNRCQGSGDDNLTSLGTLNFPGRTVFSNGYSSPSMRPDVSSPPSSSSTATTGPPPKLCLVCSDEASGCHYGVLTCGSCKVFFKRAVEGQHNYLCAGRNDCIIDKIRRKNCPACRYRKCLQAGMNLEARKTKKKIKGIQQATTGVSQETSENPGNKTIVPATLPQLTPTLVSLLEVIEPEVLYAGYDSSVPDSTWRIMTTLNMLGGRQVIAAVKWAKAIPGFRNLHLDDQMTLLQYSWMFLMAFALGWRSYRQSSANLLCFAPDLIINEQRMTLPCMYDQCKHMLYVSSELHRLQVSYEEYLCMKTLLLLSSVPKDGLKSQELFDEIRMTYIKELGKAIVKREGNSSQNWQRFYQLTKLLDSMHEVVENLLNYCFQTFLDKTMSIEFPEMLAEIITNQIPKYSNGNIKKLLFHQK

[1] = target: T2, Glucocorticoid receptor (Homo sapiens) (UniProt P04150); test: Transcriptional activation of Gal4(1-147) tagged glucocorticoid receptor in human HeLa cells at 1 uM by luciferase reporter gene assay relative to OxDex-AEEA; assay type: cell-based
T2 sequence (whole entry): T1 sequence (P04150 whole entry)

CC(C)C[C@](CCO)(C[C@H](O)CNC(=O)COCCOCCNC(=O)[C@@]1(O)[C@H](C)C[C@H]2[C@@H]3CCC4=CC(=O)C=C[C@]4(C)[C@@]3(F)[C@@H](O)C[C@@]21C)NCc1ccccc1
EC50 (Glucocorticoid receptor): 2.5 µM

CC(C)C[C@]1(CCO)C[C@H](CNC(=O)COCCOCCNC(=O)[C@@]2(O)[C@H](C)C[C@H]3[C@@H]4CCC5=CC(=O)C=C[C@]5(C)[C@@]4(F)[C@@H](O)C[C@@]32C)ON1Cc1ccccc1
fold change (FC) [1]: 80 | EC50 (Glucocorticoid receptor): 0.033 µM

CC(C)C[C@@H](NC(=O)COCCOCCNC(=O)[C@@]1(O)[C@H](C)C[C@H]2[C@@H]3CCC4=CC(=O)C=C[C@]4(C)[C@@]3(F)[C@@H](O)C[C@@]21C)C(=O)N[C@H](CO)C(=O)N[C@H](Cc1ccccc1)C(N)=O
EC50 (Glucocorticoid receptor): 1.86 µM

From ChEMBL document CHEMBL1140985, “Expanding the repertoire of small molecule transcriptional activation domains” (Bioorg Med Chem, 2009)
